# Ends that are not written are not given here.
# Assays:
# [1] = tested on: Listeria monocytogenes; test: Multiplication of Listeria monocytogenes in the liver and the spleen of treated mice; assay type: in vivo; settings: 0.5 ml of 10^-4 M i.v. 12 h before i.v. 0.3×10^5 Listeria; NaCl control 7 × 10^7 ± 2.4
# Protocol: Mice in four batches of 4 animals were treated under the same conditions as previously. Twelve hours later, the mice were all inoculated, intravenously with 0.3×10^5 Listeria monocytogenes. The table below summarizes the results obtained. Again, the mice treated by the active principles show, in their spleen and especially in their liver, a number of Listeria up to 500 times smaller than in the liver of the control animals.
# [2] = tested on: guinea pig ileon; settings: cited from earlier work
# [3] = tested on: Salmonella typhimurium; test: Blood purging of Salmonella typhimurium in treated mice; assay type: in vivo; settings: 0.5 ml of 10^-4 M i.v. 12 h before i.v. 2×10^7 Salmonella typhimurium; NaCl control 1.20 × 10^6 ± 0.28
# Protocol: The increase in the bactericidal power of the macrophages always accompanying an increase in their ingestion capacities, it was sought to measure the latter with Salmonella typhimurium which necessitates for its phagocytosis, contrary to Listeria monocytogenes, opsonizing antibodies or a considerable stimulation of the hepatic macrophages. For this, the mice were treated under the same conditions as in the preceding experiment but were inoculated with 2×10^7 Salmonella typhimurium intravenously.
# [4] = tested on: Lewis carcinoma (3LL); test: Resistance of treated mice to Lewis carcinoma (3LL); assay type: in vivo, C57B1/6 mice; settings: product injected 24 hours after inoculation; for Development of the tumor (difference in thickness between tumor paw and contralateral paw): 10^5 3LL cells into plantar pad, measured 9 days later, NaCl control 326 ± 34; for Number of pulmonary metastases: tumor paw amputated, autopsy 20 days after inoculation, NaCl control 5.3 ± 2.7
# Protocol: This tumor is maintained in the laboratory as has been described (Fauve, R. M. and Hevin, B., Ann. Immunol. (Inst. Pasteur), 1977, 128C, 923-928). 3LL cells were cultured in Eagle medium supplemented with 15% of foetal calf serum and, after washing and resuspending in Eagle medium without serum, injected in the proportion of 10^5 cells in a volume of […] into the plantar pad of C57B1/6 mice. The difference between the thickness of the paw where the tumor is developed and the contralateral paw enables the development of the tumor to be evaluated.
# In all cases, the products tested were injected 24 hours after inoculation of the malignant cells and, 9 days later, after having measured the thickness of the paws, the paw bearing the tumor was amputated and, 11 days later, namely 20 days after inoculation of the tumors, the animals were autopsied and the number of metastatic pumonary nodules counted. The following table summarizes the results obtained.
Substance,Number of Listeria monocytogenes in the spleen of mice 48 h after infection [1],Activity with respect to the guinea pig ileon [2],Number of Salmonella typhimurium per ml of blood 2 h after infection [3],Development of the tumor (difference in thickness between tumor paw and contralateral paw) [4],Number of pulmonary metastases [4]
"RPPGF [1-5, Arginyl→prolyl→prolyl→glycyl→phenylalanine]",3.1 × 10^7 ± 1,totally inactive,3.05 × 10^5 ± 1.6 per ml of blood,284 ± 33,0.7 ± 0.11
"HPPGF [H5, Histidyl→prolyl→prolyl→glycyl→phenylalanine]",2.4 × 10^7 ± 1.3,,7.15 × 10^4 ± 0.78 per ml of blood,272 ± 41,0.5 ± 0.10
"KPPGF [L5, Lysyl→prolyl→prolyl→glycyl→phenylalanine]",1.8 × 10^7 ± 0.28,,9.35 × 10^4 ± 7.9 per ml of blood,295 ± 25,3.7 ± 2

# Source: US4399124A, “Peptides having immunostimulating properties and pharmaceutical compositions containing them” (Institut Pasteur, priority 1979, dated 1983)
